Laboratory results published in ChEMBL document CHEMBL1201862, “PubChem BioAssay data set” (2004).
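Exposure lasted 48 hours, with cells grown in 96-well plates and compounds tested at five concentrations. At the GI50, growth is halved.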 Activity calls are given as the source filed them. Rule as the data show it: active = GI50 up to about 1.1 µM and inactive = higher.

Key:
Test in all cases: NCI tumour cell line growth inhibition, 48 h
[1] = system: A549
[2] = system: ACHN
[3] = system: CAKI-1
[4] = system: COLO 205
[5] = system: EKVX
[6] = system: HCC 2998
[7] = system: HCT-15
[8] = system: HOP-62
[9] = system: HT-29
[10] = system: Hs-578T
[11] = system: IGROV-1
[12] = system: KM12
[13] = system: MDA-N
[14] = system: Malme-3M
[15] = system: NCI-H226
[16] = system: NCI/ADR-RES
[17] = system: RXF 393
[18] = system: SF-539
[19] = system: UACC-257

SMILES | GI50 [1] | GI50 [2] | GI50 [3] | GI50 [4] | GI50 [5] | GI50 [6] | GI50 [7] | GI50 [8] | GI50 [9] | GI50 [10] | GI50 [11] | GI50 [12] | GI50 [13] | GI50 [14] | GI50 [15] | GI50 [16] | GI50 [17] | GI50 [18] | GI50 [19]
Cc1ccc(S(=O)(=O)c2scc(-c3ccccc3)c2C)cc1 | 57.8 µM (inactive) | 67.6 µM (inactive) | > 100 µM (inactive) | > 100 µM (inactive) | 37.6 µM (inactive) | > 100 µM (inactive) | > 100 µM | > 100 µM (inactive) | > 100 µM (inactive) | > 100 µM (inactive) | > 100 µM (inactive) | > 100 µM (inactive) | > 100 µM (inactive) | > 100 µM (inactive) | > 100 µM (inactive) | 35.5 µM (inactive) | > 100 µM (inactive) | 61 µM (inactive) | 74 µM (inactive)
COc1cccc(OC)c1C1ON=C(c2ccccc2)N1C12CC3CC(CC(C3)C1)C2 (stereo not drawn) | 64.3 µM (inactive) | 35.3 µM (inactive) | > 100 µM (inactive) | > 100 µM (inactive) | > 100 µM (inactive) | > 100 µM (inactive) | > 100 µM | 80.9 µM (inactive) | > 100 µM (inactive) | 57.7 µM (inactive) | > 100 µM (inactive) | > 100 µM (inactive) | > 100 µM (inactive) | 38.6 µM (inactive) | > 100 µM (inactive) | > 100 µM (inactive) | 1.2 µM (inactive) | > 100 µM (inactive) | > 100 µM (inactive)
CCOC(=O)Cc1nc2cc(F)c(F)cc2[nH]c1=O | > 100 µM (inactive) | > 100 µM (inactive) | > 100 µM (inactive) | > 100 µM (inactive) | > 100 µM (inactive) | > 100 µM (inactive) | > 100 µM | > 100 µM (inactive) | > 100 µM (inactive) | > 100 µM (inactive) |  | > 100 µM (inactive) | > 100 µM (inactive) | > 100 µM (inactive) | > 100 µM (inactive) | > 100 µM (inactive) | > 100 µM (inactive) | > 100 µM (inactive) | > 100 µM (inactive)
CC(C)Oc1cccc(N2C(NCc3c[nH]c4ccccc34)=Nc3ccncc3S2(=O)=O)c1 | 20.4 µM (inactive) | 20.4 µM (inactive) | 32.1 µM (inactive) | 11.2 µM (inactive) | 23.1 µM (inactive) | 25.5 µM (inactive) | 22.5 µM | 30.9 µM (inactive) | 25.1 µM (inactive) | 16.2 µM (inactive) | 20.4 µM (inactive) | 33.3 µM (inactive) | 31.6 µM (inactive) | 20.5 µM (inactive) | 45.4 µM (inactive) | 19.7 µM (inactive) | 40.3 µM (inactive) | 53.6 µM (inactive) | 31.3 µM (inactive)
CN(C)CCNc1nc2c(no[n+]2[O-])c2ccccc12.[O-][Cl+3]([O-])([O-])O | 16.7 µM (inactive) | 13.8 µM (inactive) | 26.1 µM (inactive) | 16.9 µM (inactive) | 26.1 µM (inactive) | 28.2 µM (inactive) | 18 µM | 13 µM (inactive) | 27.6 µM (inactive) | 40.6 µM (inactive) | 18 µM (inactive) | 21.1 µM (inactive) | 28.9 µM (inactive) | 22.5 µM (inactive) | 16.1 µM (inactive) | 31.2 µM (inactive) | 17.5 µM (inactive) | 11.5 µM (inactive) | 16.8 µM (inactive)
CCCCCCCCOc1ccc(/C=C/C2=[N+](CCO)CCO2)cc1 | 2.7 µM (inactive) | 3.69 µM (inactive) | 7.05 µM (inactive) | 2.42 µM (inactive) | 3.94 µM (inactive) | 3.47 µM (inactive) | 12.1 µM | 8.63 µM (inactive) | 2.4 µM (inactive) | 3.53 µM (inactive) | 3.83 µM (inactive) | 3.27 µM (inactive) | 3.56 µM (inactive) | 3.04 µM (inactive) | 3.01 µM (inactive) | 12.6 µM (inactive) | 1.8 µM (inactive) | 3.12 µM (inactive) | 3.38 µM (inactive)
